Like-named read-outs stand apart in the source and are kept apart here.
How the values were obtained:
F. trinervia PEPC = target: T1, F. trinervia PEPC (Flaveria trinervia, UniProt P30694); assay: biochemical; assay type: biochemical; settings: for Selectivity C4/C3: C4 PEPC over C3 isoform; for IC50: C4 PEPC, read-out: IC50 F. trinervia PEPC
T1 construct: the full-length ppcA gene of PEPC from F. trinervia (EMBL-Bank X61304); made in house; host or cells: Escherichia coli BL21(DE3)
T1 sequence (P30694 1-966): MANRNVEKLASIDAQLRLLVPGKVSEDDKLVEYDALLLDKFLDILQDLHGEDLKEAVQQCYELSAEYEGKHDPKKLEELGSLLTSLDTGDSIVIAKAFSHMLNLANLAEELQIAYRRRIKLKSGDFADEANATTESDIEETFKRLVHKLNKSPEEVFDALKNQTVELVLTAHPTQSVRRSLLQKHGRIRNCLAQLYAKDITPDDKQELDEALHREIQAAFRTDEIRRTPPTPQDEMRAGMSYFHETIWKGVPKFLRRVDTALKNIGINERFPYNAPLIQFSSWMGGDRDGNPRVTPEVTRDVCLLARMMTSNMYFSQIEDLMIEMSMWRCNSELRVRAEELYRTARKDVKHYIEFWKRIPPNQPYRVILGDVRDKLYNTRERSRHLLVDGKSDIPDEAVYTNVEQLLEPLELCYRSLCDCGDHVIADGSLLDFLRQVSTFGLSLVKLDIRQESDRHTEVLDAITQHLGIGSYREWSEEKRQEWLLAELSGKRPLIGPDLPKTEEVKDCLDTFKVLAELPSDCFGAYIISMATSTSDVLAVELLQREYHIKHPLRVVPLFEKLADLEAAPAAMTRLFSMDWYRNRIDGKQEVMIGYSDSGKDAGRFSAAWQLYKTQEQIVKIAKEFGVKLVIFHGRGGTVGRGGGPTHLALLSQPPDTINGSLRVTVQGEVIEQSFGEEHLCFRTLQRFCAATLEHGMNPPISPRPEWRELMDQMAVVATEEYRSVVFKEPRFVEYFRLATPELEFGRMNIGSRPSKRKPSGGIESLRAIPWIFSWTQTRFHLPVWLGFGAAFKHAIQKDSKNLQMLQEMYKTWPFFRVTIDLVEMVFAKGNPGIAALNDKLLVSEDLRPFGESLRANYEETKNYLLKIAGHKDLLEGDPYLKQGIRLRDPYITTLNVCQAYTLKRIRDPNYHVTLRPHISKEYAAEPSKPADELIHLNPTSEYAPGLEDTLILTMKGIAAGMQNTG
Experimental: The IC50 values of small molecule compounds on F. pringlei and F. trinervia PEPCs were determined using PEPC coupled spectrophotometric assay. The amount of NADH oxidized by NADH-malate dehydrogenase was measured by the decrease in absorbance at 340 nm in a Beckman DU-800 spectrophotometer, thus the value is in proportion to the corresponding substrate conversion of the enzyme. […] The reactions were started by adding two folds of the Km value of PEP for each enzyme. The data were analyzed using GraFit (Erithacus Software, UK).

[1] = tested on: Escherichia coli K-12 MG1655; assay: Bacterial growth in microscale cultivation, E. coli; assay type: cell-based; settings: relative to control; for activity at 4 µM / activity at 40 µM / activity at 400 µM / activity at 0.4 µM: Escherichia coli
Experimental: The following bacteria were cultivated in the presence of trans-chalcone derived inhibitors: Corynebacterium glutamicum ATCC13032[43], Escherichia coli K-12 MG1655[44], Pseudomonas putida KT2440[45], and Bacillus subtilis 168[46]. The growth of these bacteria was monitored in flower-well plates shaken at 1200 rpm as backscatter at 620 nm (gain 20) using a BioLector® microscale cultivation system (m2p labs, Baesweiler, Germany). For further experimental details please refer to the Supplementary Information.
medium or the appropriate minimal medium and shaken at 140 rpm overnight. For inoculation of
the main culture, cells equivalent to an optical density at 600 nm of 0.5 (C. glutamicum, E. coli,
and P. putida) or 0.25 (B. subtilis) in 800 µL medium were washed and resuspended in fresh
media. Inhibitor substances were dissolved in DMSO and added to the media to a final
Since the least polar trans-chalcone and 2’-hydroxychalcone precipitated in the growth media at
the highest concentrations, the maximal concentration of these compounds was reduced to 400
µM and 100 µM, respectively. The final backscatter at 620 nm, the growth rate (h-1), and the
duration of the lag phase of all cultures were determined in a BioLector microscale cultivation
system in comparison to negative controls supplemented with the solvent DMSO. A longer lag

[2] = MG1655, complex medium, 4 µM, read-out: Final Backscatter
[3] = MG1655, complex medium, 4 µM, read-out: Growth rate
[4] = MG1655, complex medium, 40 µM, read-out: Final Backscatter
[5] = MG1655, complex medium, 40 µM, read-out: Growth rate
[6] = MG1655, minimal medium, 4 µM, read-out: Final Backscatter
[7] = MG1655, minimal medium, 4 µM, read-out: Growth rate
[8] = MG1655, minimal medium, 40 µM, read-out: Final Backscatter
[9] = MG1655, minimal medium, 40 µM, read-out: Growth rate

| SMILES | Selectivity C4/C3 (F. trinervia PEPC) | IC50 (F. trinervia PEPC) | activity at 4 µM [1, 2] | activity at 4 µM [1, 3] | activity at 40 µM [1, 4] | activity at 40 µM [1, 5] | activity at 4 µM [1, 6] | activity at 4 µM [1, 7] | activity at 40 µM [1, 8] | activity at 40 µM [1, 9] | Lag Phase ([1]; complex medium, 4 µM) | Lag Phase ([1]; complex medium, 40 µM) | Lag Phase ([1]; minimal medium, 4 µM) | Lag Phase ([1]; minimal medium, 40 µM) | other results |
| --- | --- | --- | --- | --- | --- | --- | --- | --- | --- | --- | --- | --- | --- | --- | --- |
| O=C(/C=C/c1ccccc1O)c1ccc(O)cc1O [Compound 7, 2′,4′,2-Trihydroxychalcone] | 2.3 fold | 28.2 ± 2.2 µM | 97.2% | 93.3% | 97.3% | 90.7% | 98.2% | 99.2% | 97.2% | 105% | 107,4% | 111,1% | 88,9% | 99,0% | activity at 400 µM ([1]; MG1655, complex medium, 400 µM, read-out: Final Backscatter): 93%; activity at 400 µM ([1]; MG1655, complex medium, 400 µM, read-out: Growth rate): 104%; activity at 400 µM ([1]; MG1655, minimal medium, 400 µM, read-out: Final Backscatter): 97.4%; activity at 400 µM ([1]; MG1655, minimal medium, 400 µM, read-out: Growth rate): 103%; Lag Phase ([1]; complex medium, 400 µM): 118,5%; Lag Phase ([1]; minimal medium, 400 µM): 99,3% |
| O=C(/C=C/c1ccc(O)c(O)c1)c1ccc(O)cc1O [Compound 8, 2′,4′,3,4-Tetrahydroxy-chalcone] | 29 fold | 2.2 ± 0.2 µM | 102% | 95% | 95.7% | 89.4% | 94.1% | 86.4% | 96.6% | 85.3% | 96,7% | 100,0% | 98,1% | 98,1% | activity at 0.4 µM ([1]; MG1655, complex medium, 0.4 µM, read-out: Final Backscatter): 98.9%; activity at 0.4 µM ([1]; MG1655, complex medium, 0.4 µM, read-out: Growth rate): 102%; activity at 0.4 µM ([1]; MG1655, minimal medium, 0.4 µM, read-out: Final Backscatter): 92.9%; activity at 0.4 µM ([1]; MG1655, minimal medium, 0.4 µM, read-out: Growth rate): 83.9%; Lag Phase ([1]; complex medium, 0.4 µM): 103,3%; Lag Phase ([1]; minimal medium, 0.4 µM): 96,2% |
